The source made the active and inactive calls. The rule behind the calls is not given here.
Assays:
[1] = target: Carbonic anhydrase 1 (Homo sapiens, UniProt P00915); test: Inhibition of human full-length cytosolic CA1 after 6 hrs by stopped flow CO2 hydration assay
[2] = target: Carbonic anhydrase 2 (Homo sapiens, UniProt P00918); test: Inhibition of human full-length cytosolic CA2 after 6 hrs by stopped flow CO2 hydration assay
[3] = target: Carbonic anhydrase 12 (Homo sapiens, UniProt O43570); test: Inhibition of human recombinant CA12 after 6 hrs by stopped flow CO2 hydration assay
Carbonic anhydrase 12, sequence (O43570 whole entry): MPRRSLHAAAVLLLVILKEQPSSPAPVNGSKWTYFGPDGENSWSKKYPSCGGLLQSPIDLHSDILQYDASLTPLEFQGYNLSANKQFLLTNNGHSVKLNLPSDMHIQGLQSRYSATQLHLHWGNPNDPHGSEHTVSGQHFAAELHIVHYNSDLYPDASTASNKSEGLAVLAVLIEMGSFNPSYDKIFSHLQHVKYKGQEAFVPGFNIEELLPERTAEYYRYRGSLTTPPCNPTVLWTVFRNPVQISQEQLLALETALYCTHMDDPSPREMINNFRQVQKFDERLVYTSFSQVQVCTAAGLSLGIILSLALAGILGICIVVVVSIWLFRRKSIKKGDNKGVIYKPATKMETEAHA

[4] = target: Carbonic anhydrase 9 (Homo sapiens, UniProt Q16790); test: Inhibition of human recombinant CA9 after 6 hrs by stopped flow CO2 hydration assay
[5] = test system: 4T1; test: Anticancer activity against mouse 4T1 cells expressing CA9 xenografted in BALB/c mouse assessed as tumor growth inhibition at 30 mg/kg, iv administered on days 11,13,16 and 19
[6] = test system: Mus musculus; test: Toxicity in mouse 4T1 cells expressing […] xenografted BALB/c mouse assessed as mortality at 30 mg/kg, iv administered on days 11,13,16 and 19; type: organism-based; design: dose 30 mg/kg, route intravenous; details: in vivo
[7] = test system: Mus musculus; test: Toxicity in mouse 4T1 cells expressing CA9 xenografted BALB/c mouse assessed as weight loss at 30 mg/kg, iv administered on days 11,13,16 and 19; details: in vivo

Carbonic anhydrase 1, sequence (P00915 whole entry): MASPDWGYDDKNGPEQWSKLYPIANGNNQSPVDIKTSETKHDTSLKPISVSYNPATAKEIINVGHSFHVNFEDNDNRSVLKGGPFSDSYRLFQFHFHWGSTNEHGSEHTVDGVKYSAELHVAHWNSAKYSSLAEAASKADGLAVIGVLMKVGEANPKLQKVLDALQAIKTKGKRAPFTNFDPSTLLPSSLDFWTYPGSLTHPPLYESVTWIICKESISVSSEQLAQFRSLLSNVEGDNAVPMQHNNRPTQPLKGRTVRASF

SMILES	Ki [1] [nM]	Ki [2] [nM]	Ki [3] [nM]	Ki [4] [nM]	growth inhibition (GI) [5]	Activity [6]	Activity [7]
Cc1cc(=O)oc2cc(O[C@@H]3O[C@@H](C)[C@H](O)[C@@H](O)[C@H]3O)ccc12	> 100000	> 100000	184	201	–	–	–
Cc1cc(=O)oc2cc(O[C@H]3O[C@H](CO)[C@@H](O)[C@H](O)[C@@H]3O)ccc12	> 100000	> 100000	43	9.2	Active	Non-toxic	Non-toxic
Cc1cc(=O)oc2cc(O[C@@H]3O[C@H](CO)[C@@H](O)[C@H](O)[C@H]3O)ccc12	1000	> 100000	54	370	–	–	–
Cc1cc(=O)oc2cc(O[C@@H]3O[C@H](CO)[C@H](O)[C@H](O)[C@H]3O)ccc12	590	77000	8.5	93	–	–	–
Cc1cc(=O)oc2cc(O)ccc12 [HYMECROMONE]	> 100000	> 100000	8100	560	–	–	–
Cc1cc(=O)oc2cc(O[C@@H]3O[C@H](CO[C@H]4O[C@H](CO)[C@H](O)[C@H](O)[C@H]4O)[C@@H](O)[C@H](O)[C@H]3O)ccc12	880	590	101	820	–	–	–
